According to patent US20070099857A1, “Methods and means for inhibiting fever” (priority 2003, published 2007):

Key:
[1] = PGE2-induced febrile response after intracerebroventricular injection, telemetric body temperature; format: in vivo, mice; details: 4 nmol PGE2 intracerebroventricular
Method: We confirmed the absence of overt physiological signaling defects by ensuring that PGE2-evoked (the missing product in mPGESl1^−/− mice that is generated following LPS challenge) pyresis was indeed intact in mPGES1^−/− mice. We performed intracerebroventricular injections of PGE2 (4 nmol in 2 μl artificial cerebrospinal fluid) and then monitored using telemetry the body temperature in awake and unrestrained animals. […] Thus, a pronounced temperature increase was seen almost immediately after the PGE2 injection. It reached its peak after 30 minutes and lasted for about 1.5 hour. To determine that the elicited febrile response was due to specific activation of PGE2 receptors and not represented an unspecific response, we injected the same amount of PGE2 into EP3 receptor^−/− mice as we had injected into mPGES-1^−/− mice.
Telemetric temperature recordings: One week prior to each experiment, a temperature transmitter (Data Science International) was implanted into the peritoneal cavity of each mouse. Recordings were made via a receiver located beneath the cage and the data were fed into a computer. Recordings started at least one hour prior to surgery or injection, and were obtained every second minute throughout the entire session.
Intracerebroventricular injections of PGE2: Mice were mounted in a stereotaxic frame under anesthesia with 1% isoflurane in a 30/70% mixture of O2/N2, and kept at 37° C. through a feedback controlled heating pad. A drill hole was made in the skull through which a 29 gauge (o.d.) needle connected by a silicon tube to a Hamilton syringe was inserted into the lateral ventricle (0.5 mm posterior to Bregma, 1 mm lateral to midline, and 2.5 mm vertical to the skull surface), and 4 nmol PGE2 in 2 μl artificial cerebrospinal fluid was injected during 1 min. Control injection consisted of artificial cerebrospinal fluid. Two minutes after the end of the injection, the needle was removed, the skin sutured, and the gas anesthesia turned off. All animals were awake within 5 min after injection and were immediately returned to their home cage for resumed body temperature recordings.

mPGES-1 = target: T1, mPGES-1 (Homo sapiens, UniProt O14684); details: literature values (Thoren et al. 2000; Mancini et al. 2001; Quraishi et al. 2002); read-out: IC50 for inhibition of mPGES-1; cited from earlier work
T1 sequence (O14684 1-152): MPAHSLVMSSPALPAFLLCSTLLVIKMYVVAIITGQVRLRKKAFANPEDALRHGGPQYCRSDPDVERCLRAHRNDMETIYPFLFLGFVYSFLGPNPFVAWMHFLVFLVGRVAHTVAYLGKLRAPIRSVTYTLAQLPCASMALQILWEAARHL

CCCCC[C@H](O)/C=C/[C@H]1[C@H](O)CC(=O)[C@@H]1C/C=C\CCCC(=O)O (relative stereo) [PGE2, 11α, 15(S)-dihydroxy-9-ketoprosta-5-cis-13-trans-dienoic acid]
duration of temperature increase [1]: about 1.5 hour | time to peak of temperature increase after injection [1]: 30 min | febrile response ([1]; EP3 receptor−/− mice): did not display any febrile response | temperature elevation ([1]; mPGES+/+ mice): rapid and pronounced temperature elevation | febrile response ([1]; mPGES-1−/− mice): rapid and strong febrile response

CCCCCC=CCC=CC=CC=CC(SCC(NC(=O)CCC(N)C(=O)O)C(=O)NCC(=O)O)C(O)CCCC(=O)O [leukotriene C4, 5(S)-hydroxy-6(R)-S-glutathionyl-7,9-trans-11,14-cis-eicosa-tetraenoic acid]
IC50 (mPGES-1): 5 µM
